Reference: US20160145257A1, “SUBSTITUTED XANTHINES AND METHODS OF USE THEREOF” (Hydra Biosciences, Inc., priority 2013, published 2016)
Counter-ions that a name gives are not always drawn.

target: T1, hTRPC5 (Homo sapiens, UniProt Q9UL62); assay: Whole-cell patch clamp, block of LaCl3-activated TRPC5 inward current; assay type: cell-based; details: TRPC5-expressing HEK293 TREx cells, 80 μM LaCl3, inward current, IC50 estimated from 5 μM and 500 nM, read-out: hTRPC5 Patch La3+ Inwd (nM) (All Batches)
T1 construct: expressed in transfected cells; host or cells: HEK293 TREx cells with inducible TRPC5 expression
T1 sequence (Q9UL62 1-973): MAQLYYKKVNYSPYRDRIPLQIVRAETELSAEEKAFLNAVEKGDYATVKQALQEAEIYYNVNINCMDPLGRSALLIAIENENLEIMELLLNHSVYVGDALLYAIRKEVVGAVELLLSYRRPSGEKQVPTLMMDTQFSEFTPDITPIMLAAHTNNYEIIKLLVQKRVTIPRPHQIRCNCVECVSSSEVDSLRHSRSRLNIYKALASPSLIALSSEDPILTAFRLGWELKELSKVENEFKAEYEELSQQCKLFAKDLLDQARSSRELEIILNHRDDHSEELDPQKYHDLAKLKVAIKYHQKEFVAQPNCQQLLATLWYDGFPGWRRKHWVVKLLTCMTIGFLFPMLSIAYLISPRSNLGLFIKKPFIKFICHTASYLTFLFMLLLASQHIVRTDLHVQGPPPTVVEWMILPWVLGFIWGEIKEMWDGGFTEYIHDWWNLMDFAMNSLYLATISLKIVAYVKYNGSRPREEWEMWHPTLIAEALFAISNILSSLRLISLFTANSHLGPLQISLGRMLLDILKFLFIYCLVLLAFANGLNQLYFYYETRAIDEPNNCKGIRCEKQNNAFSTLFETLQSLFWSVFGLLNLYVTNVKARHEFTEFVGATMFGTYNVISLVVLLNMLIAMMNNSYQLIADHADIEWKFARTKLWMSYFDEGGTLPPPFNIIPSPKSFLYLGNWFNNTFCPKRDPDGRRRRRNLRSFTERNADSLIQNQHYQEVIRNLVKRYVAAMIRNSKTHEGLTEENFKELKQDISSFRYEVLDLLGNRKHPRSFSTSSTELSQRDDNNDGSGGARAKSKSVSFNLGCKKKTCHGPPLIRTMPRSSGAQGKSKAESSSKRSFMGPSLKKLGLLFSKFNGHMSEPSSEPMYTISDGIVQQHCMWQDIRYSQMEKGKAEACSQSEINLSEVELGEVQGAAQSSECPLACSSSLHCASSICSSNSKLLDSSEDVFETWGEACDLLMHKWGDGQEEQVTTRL
How it was run: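 Whole-cell recordings in induced TRPC5-expressing HEK293 TREx cells, holding −40 mV, 400 ms ramps −120 to +100 mV every 5 s; current activated by 80 μM external LaCl3 and 1,400 nM pipette free Ca2+ (pH 7.2 internal, 7.4 external). Inward block at −80 mV, with LaCl3 present; IC50 estimated from testing at 5 μM and 500 nM.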

IC50 | Structure (SMILES)
< 100 nM | Cn1c(=O)c2c(nc(Oc3cccc(OC(F)(F)F)c3)n2Cc2ccc(Cl)cc2)n(C)c1=O [Compound 142, 7-(4-chlorobenzyl)-1,3-dimethyl-8-(3-(trifluoromethoxy)phenoxy)-1H-purine-2,6(3H,7H)-dione]
500 to 1000 nM | CCc1coc(CSc2nc3c(c(=O)n(C)c(=O)n3C)n2Cc2ccc(OC)cc2)n1 [Compound 131, 8-((4-ethyloxazol-2-yl)methylthio)-7-(4-methoxybenzyl)-1,3-dimethyl-1H-purine-2,6(3H,7H)-dione]
2000 to 10000 nM | CCCOCCc1nc2c(c(=O)n(C)c(=O)n2C)n1Cc1cccc(OC)c1 [Compound 91]
2000 to 10000 nM | CCOCC[S+]([O-])c1nc2c(c(=O)n(C)c(=O)n2C)n1Cc1cccc(Br)c1 (stereo not drawn) [Compound 15]
2000 to 10000 nM | Cn1c(=O)c2c(nc(CO)n2Cc2cccc(Br)c2)n(C)c1=O [Compound 35]
2000 to 10000 nM | CCCOCCc1nc2c(c(=O)n(C)c(=O)n2C)n1Cc1ccc(CO)cc1 [Compound 151]
< 100 nM | Cn1c(=O)c2c(nc(Oc3cc(Cl)cc(OC(F)(F)F)c3)n2Cc2ccc(Cl)cc2)n(C)c1=O [Compound 202, 8-(3-chloro-5-(trifluoromethoxy)phenoxy)-7-(4-chlorobenzyl)-1,3-dimethyl-1H-purine-2,6(3H,7H)-dione]
100 to 500 nM | COCCCSc1nc2c(c(=O)n(C)c(=O)n2C)n1Cc1cccc(Br)c1 [Compound 19, 7-(3-bromobenzyl)-8-(3-methoxypropylthio)-1,3-dimethyl-1H-purine-2,6(3H,7H)-dione]
1000 to 2000 nM | CCc1coc(CSc2nc3c(c(=O)n(C)c(=O)n3C)n2Cc2ccc(C#N)cc2)n1 [Compound 169, 4-((8-((4-ethyloxazol-2-yl)methylthio)-1,3-dimethyl-2,6-dioxo-2,3-dihydro-1H-purin-7(6H)-yl)methyl)benzonitrile]
100 to 500 nM | CCc1coc(CSc2nc3c(c(=O)n(C)c(=O)n3C)n2Cc2ccc(OC(F)(F)F)cc2)n1 [Compound 148, 8-((4-ethyloxazol-2-yl)methylthio)-1,3-dimethyl-7-(4-(trifluoromethoxy)benzyl)-1H-purine-2,6(3H,7H)-dione]
500 to 1000 nM | CCc1coc(CSc2nc3c(c(=O)n(C)c(=O)n3C)n2Cc2cccc(OC)c2)n1 [Compound 130, 8-((4-ethyloxazol-2-yl)methylthio)-7-(3-methoxybenzyl)-1,3-dimethyl-1H-purine-2,6(3H,7H)-dione]
2000 to 10000 nM | Cn1c(=O)c2c(nc(Oc3cccc(CO)c3)n2Cc2cccc(Cl)c2)n(C)c1=O [Compound 140]
2000 to 10000 nM | CNCc1cccc(Oc2nc3c(c(=O)n(C)c(=O)n3C)n2Cc2cccc(Cl)c2)c1 [Compound 152, hydrochloride]
2000 to 10000 nM | Cn1c(=O)c2c(nc(Oc3cccc(C(F)(F)F)c3)n2CCCc2ccc(Cl)cc2)n(C)c1=O [Compound 195]
2000 to 10000 nM | CCCC(O)c1cccc(Oc2nc3c(c(=O)n(C)c(=O)n3C)n2Cc2cccc(Br)c2)c1 (stereo not drawn) [Compound 173, 7-(3-bromobenzyl)-8-(3-(1-hydroxybutyl)phenoxy)-1,3-dimethyl-1H-purine-2,6(3H,7H)-dione]
< 100 nM | CCCc1cccc(Oc2nc3c(c(=O)n(C)c(=O)n3C)n2Cc2cccc(Br)c2)c1 [Compound 113, 7-(3-bromobenzyl)-1,3-dimethyl-8-(3-propylphenoxy)-1H-purine-2,6(3H,7H)-dione]
100 to 500 nM | CCOC(=O)CC(C)c1nc2c(c(=O)n(C)c(=O)n2C)n1Cc1cccc(Br)c1 (stereo not drawn) [Compound 86]
2000 to 10000 nM | CCOC(=O)CCc1nc2c(c(=O)n(C)c(=O)n2C)n1Cc1cccc(Br)c1 [Compound 37, ethyl 3-(7-(3-bromobenzyl)-1,3-dimethyl-2,6-dioxo-2,3,6,7-tetrahydro-1H-purin-8-yl)propanoate]
2000 to 10000 nM | Cc1nc2c(c(=O)n(C)c(=O)n2C)n1Cc1cccc(Br)c1 [Compound 24, 7-(3-bromobenzyl)-1,3,8-trimethyl-1H-purine-2,6(3H,7H)-dione]
2000 to 10000 nM | CN1CCN(Cc2nc3c(c(=O)n(C)c(=O)n3C)n2Cc2cccc(Br)c2)CC1 [Compound 51]
< 100 nM | Cn1c(=O)c2c(nc(Oc3cccc(OC(F)(F)F)c3)n2Cc2cc(Cl)cc(Cl)c2)n(C)c1=O [Compound 204, 7-(3,5-dichlorobenzyl)-1,3-dimethyl-8-(3-(trifluoromethoxy)phenoxy)-1H-purine-2,6(3H,7H)-dione]
100 to 500 nM | Cn1c(=O)c2c(nc(Sc3cccc(C(F)(F)F)c3)n2Cc2ccc(Cl)cc2)n(C)c1=O [Compound 192, 7-(4-chlorobenzyl)-1,3-dimethyl-8-(3-(trifluoromethyl)phenylthio)-1H-purine-2,6(3H,7H)-dione]

Structure (SMILES) | IC50
CCCCOCc1nc2c(c(=O)n(C)c(=O)n2C)n1Cc1cccc(Br)c1 [Compound 55, 7-(3-bromobenzyl)-8-(butoxymethyl)-1,3-dimethyl-1H-purine-2,6(3H,7H)-dione] | 500 to 1000 nM

target: T2, hTRPC4 (Homo sapiens, UniProt Q9UBN4); assay: Whole-cell patch clamp, block of TRPC4 inward current; assay type: cell-based; details: read-out: hTRPC4 Patch Inwd (nM) (All Batches)
T2 sequence (Q9UBN4 1-977): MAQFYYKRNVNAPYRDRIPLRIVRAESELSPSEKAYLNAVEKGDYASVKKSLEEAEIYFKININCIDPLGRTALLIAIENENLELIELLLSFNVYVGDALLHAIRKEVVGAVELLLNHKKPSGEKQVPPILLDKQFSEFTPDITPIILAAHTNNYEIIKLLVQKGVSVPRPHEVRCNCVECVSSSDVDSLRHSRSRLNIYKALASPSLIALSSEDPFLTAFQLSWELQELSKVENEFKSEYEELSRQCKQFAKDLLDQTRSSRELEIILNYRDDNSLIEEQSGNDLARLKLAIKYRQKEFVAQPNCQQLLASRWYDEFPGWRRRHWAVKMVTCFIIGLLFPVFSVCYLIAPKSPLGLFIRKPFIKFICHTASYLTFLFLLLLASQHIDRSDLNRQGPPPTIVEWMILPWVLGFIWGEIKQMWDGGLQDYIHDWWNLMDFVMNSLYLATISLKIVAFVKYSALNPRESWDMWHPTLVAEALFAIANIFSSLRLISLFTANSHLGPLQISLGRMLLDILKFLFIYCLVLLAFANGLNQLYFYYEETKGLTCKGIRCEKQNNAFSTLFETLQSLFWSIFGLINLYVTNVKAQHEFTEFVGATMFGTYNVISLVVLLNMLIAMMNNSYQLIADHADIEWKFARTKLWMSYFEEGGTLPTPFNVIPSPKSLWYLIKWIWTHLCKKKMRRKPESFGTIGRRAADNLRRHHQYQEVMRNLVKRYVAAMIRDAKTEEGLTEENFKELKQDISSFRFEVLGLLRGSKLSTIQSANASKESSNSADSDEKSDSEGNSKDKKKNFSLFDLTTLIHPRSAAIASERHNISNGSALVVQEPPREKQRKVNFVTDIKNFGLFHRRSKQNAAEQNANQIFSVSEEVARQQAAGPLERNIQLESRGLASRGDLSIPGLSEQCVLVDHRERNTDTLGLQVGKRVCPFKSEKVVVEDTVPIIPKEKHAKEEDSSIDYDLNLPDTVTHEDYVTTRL

IC50 | Structure (SMILES)
< 100 nM | Cn1c(=O)c2c(nc(Oc3cccc(OC(F)(F)F)c3)n2Cc2ccc(Cl)cc2)n(C)c1=O [Compound 142, 7-(4-chlorobenzyl)-1,3-dimethyl-8-(3-(trifluoromethoxy)phenoxy)-1H-purine-2,6(3H,7H)-dione]
